According to US20220024945A1, “THERAPEUTIC COMPOUNDS AND COMPOSITIONS, AND METHODS OF USE THEREOF” (Genentech, Inc., priority 2017, published 2022):
Read-outs that look alike come from different tables or passages of the source.

How the values were obtained:
[1] = target: isolated recombinant JAK1 kinase domain (Homo sapiens, UniProt P23458); assay: JAK enzyme assay (Caliper LabChip), JAK1 kinase domain; assay type: biochemical; conditions: ATP 25 μM; 1.5 nM JAK1; Morrison tight binding model
[2] = tested on: JAK1-dependent STAT6 phosphorylation downstream of IL-13 stimulation, BEAS-2B cells; assay: JAK1 pathway assay in cell lines: P-STAT6 in BEAS-2B cells + IL13; assay type: cell-based; conditions: BEAS-2B human bronchial epithelial cells, 1 hr compound preincubation, read-out: P-STAT6 BEAS2B + IL13 IC50
Protocol: JAK1 Pathway Assay in Cell Lines was Carried Out as Follows:
Inhibitor potency (EC50) was determined in cell-based assays designed to measure JAK1 dependent STAT phosphorylation. As noted above, inhibition of IL-4, IL-13, and IL-9 signaling by blocking the Jak/Stat signaling pathway can alleviate asthmatic symptoms in pre-clinical lung inflammation models (Mathew et al., 2001, J Exp Med 193(9): 1087-1096; Kudlacz et. al., 2008, Eur J. Pharmacol 582(1-3): 154-161).
In one assay approach, TF-1 human erythroleukemia cells obtained from the American Type Culture Collection (ATCC; Manassas, Va.) were used to measure JAK1-dependent STAT6 phosphorylation downstream of IL-13 stimulation. Prior to use in the assays, TF-1 cells were starved of GM-CSF overnight in OptiMEM medium (Life Technologies, Grand Island, N.Y.) supplemented with 0.5% charcoal/dextran stripped fetal bovine serum (FBS), 0.1 mM non-essential amino acids (NEAA), and 1 mM sodium pyruvate. The assays were run in 384-well plates in serum-free OptiMEM medium using 300,000 cells per well. In a second assay approach, BEAS-2B human bronchial epithelial cells obtained from ATCC were plated at 100,000 cells per well of a 96-well plate one day prior to the experiment. The BEAS-2B assay was run in complete growth medium (bronchial epithelial basal medium plus bulletkit; Lonza; Basel, Switzerland).
Test compounds were serially diluted 1:2 in DMSO and then diluted 1:50 in medium just before use. Diluted compounds were added to the cells, for a final DMSO concentration of 0.2%, and incubated for 30 m (for the TF-1 assay) or 1 hr (for the BEAS-2B assay) at 37° C. Then, cells were stimulated with human recombinant cytokine at their respective EC90 concentrations, as previously determined for each individual lot. Cells were stimulated with […] (R&D Systems, Minneapolis, Minn.) for 15 m/at 37° C. The TF-1 cell reactions were stopped by the direct addition of 10× lysis buffer (Cell Signaling Technologies, Danvers, Mass.), whereas the BEAS-2B cell incubations were halted by the removal of medium and addition of 1× lysis buffer. The resultant samples were frozen in the plates at −80° C. Compound mediated inhibition of STAT6 phosphorylation was measured in the cell lysates using MesoScale Discovery (MSD) technology (Gaithersburg, Md.). EC50 values were determined as the concentration of compound required for 50% inhibition of STAT phosphorylation relative to that measured for the DMSO control.

[3] = target: isolated recombinant JAK2 kinase domain (Homo sapiens, UniProt O60674); assay: JAK enzyme assay (Caliper LabChip), JAK2 kinase domain; conditions: ATP 25 μM, 0.2 nM JAK2, Morrison tight binding model
isolated recombinant JAK2 kinase domain, sequence (O60674 849-1124 limits assumed): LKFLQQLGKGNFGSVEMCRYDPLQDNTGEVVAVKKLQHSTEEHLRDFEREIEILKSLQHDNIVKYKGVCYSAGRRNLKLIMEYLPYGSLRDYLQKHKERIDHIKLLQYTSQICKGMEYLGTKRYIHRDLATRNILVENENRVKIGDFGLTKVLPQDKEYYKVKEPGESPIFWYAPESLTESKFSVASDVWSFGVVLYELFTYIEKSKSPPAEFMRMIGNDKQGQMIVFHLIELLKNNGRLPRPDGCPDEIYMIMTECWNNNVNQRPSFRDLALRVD
Protocol: JAK Enzyme Assays were Carried Out as Follows:
The activity of the isolated recombinant JAK1 and JAK2 kinase domain was measured by monitoring phosphorylation of a peptide derived from JAK3 ([sequence] fluorescently labeled on the N-terminus with 5-carboxyfluorescein) using the Caliper LabChip® technology (Caliper Life Sciences, Hopkinton, Mass.). […] Reactions were incubated at 22° C. in 384-well polypropylene microtiter plates for 30 minutes and then stopped by addition of 25 μL of an EDTA containing solution (100 mM HEPES buffer (pH 7.2), 0.015% Brij-35, 150 mM EDTA), resulting in a final EDTA concentration of 50 mM. After termination of the kinase reaction, the proportion of phosphorylated product was determined as a fraction of total peptide substrate using the Caliper LabChip® 3000 according to the manufacturer's specifications.

isolated recombinant JAK1 kinase domain, sequence (P23458 875-1153 limits assumed): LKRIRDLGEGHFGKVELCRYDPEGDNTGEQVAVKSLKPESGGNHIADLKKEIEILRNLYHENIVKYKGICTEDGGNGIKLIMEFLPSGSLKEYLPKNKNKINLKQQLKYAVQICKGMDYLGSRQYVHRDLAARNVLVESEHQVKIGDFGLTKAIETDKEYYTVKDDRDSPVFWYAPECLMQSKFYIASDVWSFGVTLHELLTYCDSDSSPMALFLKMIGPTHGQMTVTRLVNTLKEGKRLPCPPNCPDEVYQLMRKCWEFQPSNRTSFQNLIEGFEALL

Ki [1] [pM]	Ki [3] [pM]	SMILES	IC50 ([2]; Homo sapiens, BEAS-2B, 1 h) [pM]	IC50 [2] [pM]
300	560	CN(C)C(=O)Cn1cc(NC(=O)c2cnn3cccnc23)c(-c2cc(S(=O)(=O)C(F)F)ccc2OC(F)F)n1 [Example 50, N-(3-(2-(difluoromethoxy)-5-((difluoromethyl)sulfonyl)phenyl)-1-(2-(dimethylamino)-2-oxoethyl)-1H-pyrazol-4-yl)pyrazolo[1,5-a]pyrimidine-3-carboxamide]	38000	–
1160	570	O=C(Nc1c[nH]nc1-c1cc(SC2CCCNC2)ccc1OC(F)F)c1cnn2cccnc12 (single isomer, unassigned) [Example 37, N-[3-[2-(difluoromethoxy)-5-(3-piperidylsulfanyl)phenyl]-1H-pyrazol-4-yl]pyrazolo[1,5-a]pyrimidine-3-carboxamide]	–	222000
560	360	O=C(Nc1cn(Cc2cn(C3CCN([C@H]4CCOC4)CC3)nn2)nc1-c1cc(SC2CC2)ccc1OC(F)F)c1cnn2cccnc12 (stereo in doubt) [Example 13, N-[3-[5-cyclopropylsulfanyl-2-(difluoromethoxy)phenyl]-1-[[1-[1-[rac-(3S)-tetrahydrofuran-3-yl]-4-piperidyl]triazol-4-yl]methyl]pyrazol-4-yl]pyrazolo[1,5-a]pyrimidine-3-carboxamide]	17000	–
1140	900	O=C(Nc1cn(C2CN(C3COC3)C2)nc1-c1cc(SC2COC2)ccc1OC(F)F)c1cnn2cccnc12 [Example 35, N-[3-[2-(difluoromethoxy)-5-(oxetan-3-ylsulfanyl)phenyl]-1-[1-(oxetan-3-yl)azetidin-3-yl]pyrazol-4-yl]pyrazolo[1,5-a]pyrimidine-3-carboxamide]	42000	–
1350	4440	CN(C)C(=O)Cn1cc(NC(=O)c2cnn3cccnc23)c(-c2cc([S+](C)[O-])ccc2OC(F)F)n1 (stereo not drawn) [Example 48, N-(3-(2-(difluoromethoxy)-5-(methylsulfinyl)phenyl)-1-(2-(dimethylamino)-2-oxoethyl)-1H-pyrazol-4-yl)pyrazolo[1,5-a]pyrimidine-3-carboxamide]	518000	–
450	790	CN(C)C(=O)Cn1cc(NC(=O)c2cnn3cccnc23)c(-c2cc(S(C)(=O)=O)ccc2OC(F)F)n1 [Example 49, N-(3-(2-(difluoromethoxy)-5-(methylsulfonyl)phenyl)-1-(2-(dimethylamino)-2-oxoethyl)-1H-pyrazol-4-yl)pyrazolo[1,5-a]pyrimidine-3-carboxamide]	214000	–
350	250	CC[C@H](O)Cn1cc(NC(=O)c2cnn3cccnc23)c(-c2cc(SC)ccc2OC(F)F)n1 (racemic) [Example 41, N-[3-[2-(difluoromethoxy)-5-methylsulfanyl-phenyl]-1-[rac-(2S)-2-hydroxybutyl]pyrazol-4-yl]pyrazolo[1,5-a]pyrimidine-3-carboxamide]	13000	–
250	390	CSc1ccc(OC(F)F)c(-c2nn(CC(=O)N3CCCCC3)cc2NC(=O)c2cnn3cccnc23)c1 [Example 29]	14000	–
970	2930	CN(C1CCN(C(=O)Cn2cc(NC(=O)c3cnn4cccnc34)c(-c3cc(SC4CCOCC4)ccc3OC(F)F)n2)CC1)C1COC1 [Example 6, N-[3-[2-(difluoromethoxy)-5-tetrahydropyran-4-ylsulfanyl-phenyl]-1-[2-[44-[methyl(oxetan-3-yl)amino]-1-piperidyl]-2-oxo-ethyl]pyrazol-4-yl]pyrazolo[1,5-a]pyrimidine-3-carboxamide]	278000	–
180	780	CN(C)C(=O)Cn1cc(NC(=O)c2cnn3cccnc23)c(-c2cc(SCC(F)(F)F)ccc2OC(F)F)n1 [Example 47, N-(3-(2-(difluoromethoxy)-5-((2,2,2-trifluoroethyl)thio)phenyl)-1-(2-(dimethylamino)-2-oxoethyl)-1H-pyrazol-4-yl)pyrazolo[1,5-a]pyrimidine-3-carboxamide]	15000	–
580	240	CC(C)Sc1ccc(OC(F)F)c(-c2nn(CCO)cc2NC(=O)c2cnn3cccnc23)c1 [Example 10, N-[3-[2-(difluoromethoxy)-5-isopropylsulfanyl-phenyl]-1-(2-hydroxyethyl)pyrazol-4-yl]pyrazolo[1,5-a]pyrimidine-3-carboxamide]	17000	–
410	960	O=C(Nc1cn(CC(=O)N2CCCCC2)nc1-c1cc(SC2COC2)ccc1OC(F)F)c1cnn2cccnc12 [Example 28, N-[3-[2-(difluoromethoxy)-5-(oxetan-3-ylsulfanyl)phenyl]-1-[2-oxo-2-(1-piperidyl)ethyl]pyrazol-4-yl]pyrazolo[1,5-a]pyrimidine-3-carboxamide]	24000	–
1240	1280	C[C@H](O)Cn1cc(Sc2ccc(OC(F)F)c(-c3nn(CC(=O)N(C)C)cc3NC(=O)c3cnn4cccnc34)c2)cn1 [Example 46, (S)-N-(3-(2-(difluoromethoxy)-5-((1-(2-hydroxypropyl)-1H-pyrazol-4-yl)thio)phenyl)-1-(2-(dimethylamino)-2-oxoethyl)-1H-pyrazol-4-yl)pyrazolo[1,5-a]pyrimidine-3-carboxamide]	223000	–
290	100	CSc1ccc(OC(F)F)c(-c2nn(CC(N)=O)cc2NC(=O)c2cnn3cccnc23)c1 [Example 27, N-[1-(2-amino-2-oxo-ethyl)-3-[2-(difluoromethoxy)-5-methylsulfanyl-phenyl]pyrazol-4-yl]pyrazolo[1,5-a]pyrimidine-3-carboxamide]	12000	–
670	280	O=C(Nc1c[nH]nc1-c1cc(SC2CCCCC2)ccc1OC(F)F)c1cnn2cccnc12 [Example 2, N-[3-[5-cyclohexylsulfanyl-2-(difluoromethoxy)phenyl]-1H-pyrazol-4-yl]pyrazolo[1,5-a]pyrimidine-3-carboxamide]	43000	–
210	520	CN(C)C(=O)Cn1cc(NC(=O)c2cnn3cccnc23)c(-c2cc(SC(F)F)ccc2OC(F)F)n1 [Example 33, N-[3-[2-(difluoromethoxy)-5-(difluoromethylsulfanyl)phenyl]-1-[2-(dimethylamino)-2-oxo-ethyl]pyrazol-4-yl]pyrazolo[1,5-a]pyrimidine-3-carboxamide]	10000	–
400	150	O=C(Nc1c[nH]nc1-c1cc(SC2CCOCC2)ccc1OC(F)F)c1cnn2cccnc12 [Example 1, N-[3-[2-(difluoromethoxy)-5-tetrahydropyran-4-ylsulfanyl-phenyl]-1H-pyrazol-4-yl]pyrazolo[1,5-a]pyrimidine-3-carboxamide]	11000	–
660	380	O=C(Nc1cn(Cc2cn(C3CCN([C@@H]4CCOC4)CC3)nn2)nc1-c1cc(SC2COC2)ccc1OC(F)F)c1cnn2cccnc12 (stereo in doubt) [Example 21, N-[3-[2-(difluoromethoxy)-5-(oxetan-3-ylsulfanyl)phenyl]-1-[[1-[1-[rac-(3R)-tetrahydrofuran-3-yl]-4-piperidyl]triazol-4-yl]methyl]pyrazol-4-yl]pyrazolo[1,5-a]pyrimidine-3-carboxamide]	57000	–
160	120	O=C(Nc1c[nH]nc1-c1cc(SCC(F)(F)F)ccc1OC(F)F)c1cnn2cccnc12 [Example 3, N-[3-[2-(difluoromethoxy)-5-(2,2,2-trifluoroethylsulfanyl)phenyl]-1H-pyrazol-4-yl]pyrazolo[1,5-a]pyrimidine-3-carboxamide]	10000	–
2930	1380	CN1CCCC(Sc2ccc(OC(F)F)c(-c3n[nH]cc3NC(=O)c3cnn4cccnc34)c2)C1 (single isomer, unassigned) [Example 38, N-[3-[2-(difluoromethoxy)-5-[(1-methyl-3-piperidyl)sulfanyl]phenyl]-1H-pyrazol-4-yl]pyrazolo[1,5-a]pyrimidine-3-carboxamide]	56000	–
